Key:
Assay type in all cases: biochemical
p38a MAPK = p38a MAPK (Homo sapiens, UniProt Q16539); assay: Kinase profiling p38a MAPK; settings: 100 micromolar inhibitor concentration, 100 is no change
Description: (§1) Any value less that 25 is considered to be highly significant inhibition.

SYK = SYK (Homo sapiens, UniProt P43405); assay: Kinase profiling SYK; settings: 100 micromolar inhibitor concentration, 100 is no change
Description: as §1

p38b MAPK = p38b MAPK (Homo sapiens, UniProt Q15759); assay: Kinase profiling p38b MAPK; settings: 100 micromolar inhibitor concentration, 100 is no change
Description: as §1

PDK1 = biological target: T1, PDK1 (Homo sapiens, UniProt O15530); assay: Kinase profiling PDK1; settings: 100 micromolar inhibitor concentration, 100 is no change
T1 sequence (O15530 1-556): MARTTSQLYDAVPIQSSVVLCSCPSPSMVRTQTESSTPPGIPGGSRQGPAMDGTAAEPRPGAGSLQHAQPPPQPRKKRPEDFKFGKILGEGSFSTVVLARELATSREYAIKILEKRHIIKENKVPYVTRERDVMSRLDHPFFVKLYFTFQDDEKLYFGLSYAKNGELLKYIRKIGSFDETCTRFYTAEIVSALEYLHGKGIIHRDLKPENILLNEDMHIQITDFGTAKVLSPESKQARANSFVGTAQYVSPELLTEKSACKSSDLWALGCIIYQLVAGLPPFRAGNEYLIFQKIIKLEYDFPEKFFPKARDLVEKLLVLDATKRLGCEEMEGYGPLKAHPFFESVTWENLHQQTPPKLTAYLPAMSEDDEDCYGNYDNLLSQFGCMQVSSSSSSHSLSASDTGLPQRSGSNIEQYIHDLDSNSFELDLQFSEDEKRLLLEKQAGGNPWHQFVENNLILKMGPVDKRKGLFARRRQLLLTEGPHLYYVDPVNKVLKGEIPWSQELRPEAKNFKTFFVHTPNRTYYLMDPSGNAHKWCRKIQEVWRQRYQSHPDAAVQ
Description: as §1

CAMKKb = CAMKKb (Homo sapiens, UniProt Q96RR4); assay: Kinase profiling CAMKKb; settings: 100 micromolar inhibitor concentration, 100 is no change
CAMKKb, sequence (Q96RR4 whole entry, species assumed): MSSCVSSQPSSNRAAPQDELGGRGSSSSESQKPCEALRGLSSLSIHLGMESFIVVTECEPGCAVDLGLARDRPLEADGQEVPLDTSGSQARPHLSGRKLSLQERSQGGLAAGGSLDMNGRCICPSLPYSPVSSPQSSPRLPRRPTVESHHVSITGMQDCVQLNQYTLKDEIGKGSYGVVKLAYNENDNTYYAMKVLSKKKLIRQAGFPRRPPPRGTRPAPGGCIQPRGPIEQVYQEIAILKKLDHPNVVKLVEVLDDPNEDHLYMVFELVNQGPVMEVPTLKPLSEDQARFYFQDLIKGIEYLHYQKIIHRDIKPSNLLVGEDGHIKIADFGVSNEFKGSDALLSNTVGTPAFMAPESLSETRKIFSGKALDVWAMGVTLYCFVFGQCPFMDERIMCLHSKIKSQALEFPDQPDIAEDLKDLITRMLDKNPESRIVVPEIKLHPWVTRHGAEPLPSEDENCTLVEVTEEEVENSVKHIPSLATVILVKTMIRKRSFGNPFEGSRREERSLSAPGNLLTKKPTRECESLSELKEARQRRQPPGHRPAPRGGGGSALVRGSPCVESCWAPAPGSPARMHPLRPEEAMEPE
Description: as §1

PAK4 = PAK4 (Homo sapiens, UniProt O96013); assay: Kinase profiling PAK4; settings: 100 micromolar inhibitor concentration, 100 is no change
Description: as §1

PLK1 = PLK1 (Homo sapiens, UniProt P53350); assay: Kinase profiling PLK1; settings: 100 micromolar inhibitor concentration, 100 is no change
Description: as §1

EF2K = EF2K (Homo sapiens, UniProt O00418); assay: Kinase profiling EF2K; settings: 100 micromolar inhibitor concentration, 100 is no change
Description: as §1

DYRK1A = DYRK1A (Homo sapiens, UniProt Q13627); assay: DYRK 1A assay (kinase profiling); settings: 100 micromolar inhibitor concentration, 100 is no change
Experimental: Assays are stopped by addition of 5 μl of 0.5 M (3%) orthophosphoric acid and then harvested onto P81 Unifilter plates with a wash buffer of 50 mM orthophosphoric acid.
as §1

PKCa = PKCa (Homo sapiens, UniProt P17252); assay: Kinase profiling PKCa; settings: 100 micromolar inhibitor concentration, 100 is no change
Description: as §1

MKK1 = MKK1 (Homo sapiens, UniProt Q02750); assay: Kinase profiling MKK1; settings: 100 micromolar inhibitor concentration, 100 is no change
MKK1, sequence (Q02750 whole entry, species assumed): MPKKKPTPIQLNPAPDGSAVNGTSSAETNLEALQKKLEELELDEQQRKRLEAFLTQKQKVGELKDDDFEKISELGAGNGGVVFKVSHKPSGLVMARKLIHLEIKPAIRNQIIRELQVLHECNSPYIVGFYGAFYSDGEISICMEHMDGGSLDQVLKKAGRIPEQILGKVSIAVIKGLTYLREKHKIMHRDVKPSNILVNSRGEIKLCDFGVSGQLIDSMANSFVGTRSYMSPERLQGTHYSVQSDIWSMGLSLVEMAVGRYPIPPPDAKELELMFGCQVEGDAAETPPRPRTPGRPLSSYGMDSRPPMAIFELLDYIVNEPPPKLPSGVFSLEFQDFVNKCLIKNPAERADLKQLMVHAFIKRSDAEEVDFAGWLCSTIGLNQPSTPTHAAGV
Description: as §1

CHK2 = CHK2 (Homo sapiens, UniProt O96017); assay: Kinase profiling CHK2; settings: 100 micromolar inhibitor concentration, 100 is no change
Description: as §1

JAK2 = JAK2 (Homo sapiens, UniProt O60674); assay: Kinase profiling JAK2; settings: 100 micromolar inhibitor concentration, 100 is no change
Description: as §1

MARK3 = MARK3 (Homo sapiens, UniProt P27448); assay: Kinase profiling MARK3; settings: 100 micromolar inhibitor concentration, 100 is no change
MARK3, sequence (P27448 whole entry, species assumed): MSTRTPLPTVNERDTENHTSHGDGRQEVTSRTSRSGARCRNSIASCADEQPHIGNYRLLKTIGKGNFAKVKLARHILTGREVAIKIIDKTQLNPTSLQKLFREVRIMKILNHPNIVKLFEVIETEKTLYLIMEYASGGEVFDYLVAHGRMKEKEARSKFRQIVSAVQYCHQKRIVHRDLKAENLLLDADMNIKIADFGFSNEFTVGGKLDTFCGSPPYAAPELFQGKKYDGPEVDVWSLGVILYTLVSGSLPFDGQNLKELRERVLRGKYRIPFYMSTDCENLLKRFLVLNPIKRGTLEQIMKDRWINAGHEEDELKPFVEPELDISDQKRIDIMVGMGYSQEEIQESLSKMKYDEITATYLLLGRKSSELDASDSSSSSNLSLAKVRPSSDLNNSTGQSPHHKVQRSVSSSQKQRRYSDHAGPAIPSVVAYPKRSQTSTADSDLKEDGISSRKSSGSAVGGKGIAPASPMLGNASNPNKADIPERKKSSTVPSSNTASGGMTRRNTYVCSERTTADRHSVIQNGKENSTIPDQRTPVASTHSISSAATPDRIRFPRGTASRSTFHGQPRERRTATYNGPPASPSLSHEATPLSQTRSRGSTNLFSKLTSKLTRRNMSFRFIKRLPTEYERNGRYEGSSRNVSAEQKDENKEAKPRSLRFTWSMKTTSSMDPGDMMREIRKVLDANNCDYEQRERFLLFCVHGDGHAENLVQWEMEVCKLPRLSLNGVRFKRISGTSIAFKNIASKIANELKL
Description: as §1

Lck = Lck (Homo sapiens, UniProt P06239); assay: Kinase profiling Lck; settings: 100 micromolar inhibitor concentration, 100 is no change
Description: as §1

PIM1 = PIM1 (Homo sapiens, UniProt P11309); assay: Kinase profiling PIM1; settings: 100 micromolar inhibitor concentration, 100 is no change
PIM1, sequence (P11309 whole entry, species assumed): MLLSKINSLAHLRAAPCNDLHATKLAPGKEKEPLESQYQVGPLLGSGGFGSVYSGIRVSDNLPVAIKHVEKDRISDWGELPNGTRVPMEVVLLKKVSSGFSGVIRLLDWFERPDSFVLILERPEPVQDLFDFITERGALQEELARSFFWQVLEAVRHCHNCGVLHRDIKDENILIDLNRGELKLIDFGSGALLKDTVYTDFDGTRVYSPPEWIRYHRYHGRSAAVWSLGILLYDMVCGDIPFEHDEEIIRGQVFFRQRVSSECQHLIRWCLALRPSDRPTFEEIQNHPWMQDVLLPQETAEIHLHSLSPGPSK
Description: as §1

RIPK2 = RIPK2 (Homo sapiens, UniProt O43353); assay: Kinase profiling RIPK2; settings: 100 micromolar inhibitor concentration, 100 is no change
Description: as §1

TBK1 = biological target: T2, TBK1 (Homo sapiens, UniProt Q9UHD2); assay: Kinase profiling TBK1; settings: 100 micromolar inhibitor concentration, 100 is no change
T2 sequence (Q9UHD2 1-729): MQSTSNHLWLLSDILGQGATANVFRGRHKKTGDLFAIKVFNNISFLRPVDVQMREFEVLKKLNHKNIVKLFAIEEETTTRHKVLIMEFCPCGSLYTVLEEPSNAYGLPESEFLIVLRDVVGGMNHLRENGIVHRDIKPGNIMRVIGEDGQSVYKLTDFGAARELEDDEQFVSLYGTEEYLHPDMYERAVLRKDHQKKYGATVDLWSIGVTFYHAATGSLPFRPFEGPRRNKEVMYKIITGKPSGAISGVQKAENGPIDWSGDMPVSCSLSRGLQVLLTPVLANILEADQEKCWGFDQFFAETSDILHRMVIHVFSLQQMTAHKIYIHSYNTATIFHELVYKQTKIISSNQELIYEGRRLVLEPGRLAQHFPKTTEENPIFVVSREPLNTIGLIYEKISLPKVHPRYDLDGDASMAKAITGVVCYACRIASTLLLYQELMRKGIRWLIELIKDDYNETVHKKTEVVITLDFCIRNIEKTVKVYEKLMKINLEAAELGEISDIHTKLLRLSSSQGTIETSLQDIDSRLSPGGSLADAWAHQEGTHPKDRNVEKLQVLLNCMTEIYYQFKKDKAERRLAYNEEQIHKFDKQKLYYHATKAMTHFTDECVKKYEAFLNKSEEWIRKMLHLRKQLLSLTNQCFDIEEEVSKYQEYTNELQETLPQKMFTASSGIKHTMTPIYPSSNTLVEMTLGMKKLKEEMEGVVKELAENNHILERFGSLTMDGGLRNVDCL
Description: as §1

EPH-A2 = EPH-A2 (Homo sapiens, UniProt P29317); assay: Kinase profiling EPH-A2; settings: 100 micromolar inhibitor concentration, 100 is no change
EPH-A2, sequence (P29317 24-976, species assumed): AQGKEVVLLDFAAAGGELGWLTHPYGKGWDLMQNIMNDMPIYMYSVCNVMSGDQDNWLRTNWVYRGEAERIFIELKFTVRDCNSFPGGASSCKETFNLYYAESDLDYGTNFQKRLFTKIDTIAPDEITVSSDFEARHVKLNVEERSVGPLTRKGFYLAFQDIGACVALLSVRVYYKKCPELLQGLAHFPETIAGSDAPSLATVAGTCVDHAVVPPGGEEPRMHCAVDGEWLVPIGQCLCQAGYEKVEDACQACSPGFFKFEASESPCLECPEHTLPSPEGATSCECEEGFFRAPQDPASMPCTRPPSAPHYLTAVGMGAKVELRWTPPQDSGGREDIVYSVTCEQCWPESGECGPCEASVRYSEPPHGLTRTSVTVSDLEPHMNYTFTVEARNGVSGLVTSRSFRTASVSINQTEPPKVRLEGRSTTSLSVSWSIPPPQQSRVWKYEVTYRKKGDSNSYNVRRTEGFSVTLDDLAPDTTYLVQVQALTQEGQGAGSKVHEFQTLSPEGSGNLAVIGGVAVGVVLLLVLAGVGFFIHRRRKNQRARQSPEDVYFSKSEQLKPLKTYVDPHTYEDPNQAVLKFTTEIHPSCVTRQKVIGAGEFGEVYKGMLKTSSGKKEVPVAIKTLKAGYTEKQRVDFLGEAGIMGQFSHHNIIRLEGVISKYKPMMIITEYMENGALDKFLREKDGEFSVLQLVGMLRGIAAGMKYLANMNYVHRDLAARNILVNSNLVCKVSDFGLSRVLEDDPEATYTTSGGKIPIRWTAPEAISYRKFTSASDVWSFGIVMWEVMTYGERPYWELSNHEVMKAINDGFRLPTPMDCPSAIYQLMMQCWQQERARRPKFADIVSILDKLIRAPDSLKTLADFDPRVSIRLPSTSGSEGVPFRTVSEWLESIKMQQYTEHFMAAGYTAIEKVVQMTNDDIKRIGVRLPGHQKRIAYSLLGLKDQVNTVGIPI
Description: as §1

BTK = BTK (Homo sapiens, UniProt Q06187); assay: Kinase profiling BTK; settings: 100 micromolar inhibitor concentration, 100 is no change
Description: as §1

RSK2 = RSK2 (Homo sapiens, UniProt P51812); assay: Kinase profiling RSK2; settings: 100 micromolar inhibitor concentration, 100 is no change
Description: as §1

PKA = PKA (Homo sapiens, UniProt P17612); assay: Kinase profiling PKA; settings: 100 micromolar inhibitor concentration, 100 is no change
Description: as §1

PKBa = PKBa (Homo sapiens, UniProt P31749); assay: Kinase profiling PKBa; settings: for residual kinase activity, PKBa: 100 micromolar inhibitor concentration, 100 is no change
Description: as §1

MSK1 = MSK1 (Homo sapiens, UniProt O75582); assay: Kinase profiling MSK1; settings: 100 micromolar inhibitor concentration, 100 is no change
MSK1, sequence (O75582 whole entry, species assumed): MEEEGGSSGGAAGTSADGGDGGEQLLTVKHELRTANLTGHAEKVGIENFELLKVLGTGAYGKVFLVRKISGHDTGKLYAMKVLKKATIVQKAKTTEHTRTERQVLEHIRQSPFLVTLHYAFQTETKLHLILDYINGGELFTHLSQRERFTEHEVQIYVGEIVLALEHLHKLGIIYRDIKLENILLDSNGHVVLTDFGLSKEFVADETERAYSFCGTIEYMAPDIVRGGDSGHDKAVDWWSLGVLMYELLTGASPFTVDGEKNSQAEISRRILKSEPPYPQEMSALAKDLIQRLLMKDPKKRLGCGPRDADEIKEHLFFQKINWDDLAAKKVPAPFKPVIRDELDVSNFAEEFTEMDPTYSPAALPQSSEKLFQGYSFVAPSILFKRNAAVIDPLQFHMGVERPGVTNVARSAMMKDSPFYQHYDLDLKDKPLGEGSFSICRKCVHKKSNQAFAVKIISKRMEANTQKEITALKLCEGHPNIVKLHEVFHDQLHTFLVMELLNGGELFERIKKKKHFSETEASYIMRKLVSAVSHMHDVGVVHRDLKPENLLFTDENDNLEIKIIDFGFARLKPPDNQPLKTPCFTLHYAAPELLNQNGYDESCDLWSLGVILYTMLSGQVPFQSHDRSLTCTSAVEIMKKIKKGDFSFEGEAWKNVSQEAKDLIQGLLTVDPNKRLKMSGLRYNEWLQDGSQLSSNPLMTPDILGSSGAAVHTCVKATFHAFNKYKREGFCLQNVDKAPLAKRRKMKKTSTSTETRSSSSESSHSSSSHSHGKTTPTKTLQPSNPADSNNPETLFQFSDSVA
Description: as §1

p38a MAPK, sequence (Q16539 whole entry): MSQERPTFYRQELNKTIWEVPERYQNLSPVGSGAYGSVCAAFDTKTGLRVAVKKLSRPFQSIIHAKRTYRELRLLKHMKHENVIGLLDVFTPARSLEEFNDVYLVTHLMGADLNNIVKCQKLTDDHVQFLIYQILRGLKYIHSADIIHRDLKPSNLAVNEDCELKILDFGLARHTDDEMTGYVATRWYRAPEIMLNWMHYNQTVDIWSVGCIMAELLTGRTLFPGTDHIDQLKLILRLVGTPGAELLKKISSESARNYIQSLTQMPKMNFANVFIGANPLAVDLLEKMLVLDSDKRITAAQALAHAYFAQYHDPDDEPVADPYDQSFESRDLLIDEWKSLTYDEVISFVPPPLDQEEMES

## COc1ccc2sc(NC(C)=O)nc2c1 [Compound 03-21]
p38a MAPK; read-out: residual kinase activity, p38a MAPK
  remaining activity at 100 µM: 96%
SYK; read-out: residual kinase activity, SYK
  remaining activity at 100 µM: 72%
p38b MAPK; read-out: residual kinase activity, p38b MAPK
  remaining activity at 100 µM: 101%
PDK1; read-out: residual kinase activity, PDK1
  remaining activity at 100 µM: 115%
CAMKKb; read-out: residual kinase activity, CAMKKb
  remaining activity at 100 µM: 87%
PAK4; read-out: residual kinase activity, PAK4
  remaining activity at 100 µM: 94%
PLK1; read-out: residual kinase activity, PLK1
  remaining activity at 100 µM: 90%
EF2K; read-out: residual kinase activity, EF2K
  remaining activity at 100 µM: 105%
DYRK1A; read-out: residual kinase activity, DYRK1A
  remaining activity at 100 µM: 2%
PKCa; read-out: residual kinase activity, PKCa
  remaining activity at 100 µM: 101%
MKK1; read-out: residual kinase activity, MKK1
  remaining activity at 100 µM: 64%
CHK2; read-out: residual kinase activity, CHK2
  remaining activity at 100 µM: 58%
JAK2; read-out: residual kinase activity, JAK2
  remaining activity at 100 µM: 88%
MARK3; read-out: residual kinase activity, MARK3
  remaining activity at 100 µM: 72%
Lck; read-out: residual kinase activity, Lck
  remaining activity at 100 µM: 109%
PIM1; read-out: residual kinase activity, PIM1
  remaining activity at 100 µM: 8%
RIPK2; read-out: residual kinase activity, RIPK2
  remaining activity at 100 µM: 29%
TBK1; read-out: residual kinase activity, TBK1
  remaining activity at 100 µM: 81%
EPH-A2; read-out: residual kinase activity, EPH-A2
  remaining activity at 100 µM: 89%
BTK; read-out: residual kinase activity, BTK
  remaining activity at 100 µM: 102%
RSK2; read-out: residual kinase activity, RSK2
  remaining activity at 100 µM: 94%
PKA; read-out: residual kinase activity, PKA
  remaining activity at 100 µM: 11%
PKBa; read-out: residual kinase activity, PKBa
  remaining activity at 100 µM: 91%
MSK1; read-out: residual kinase activity, MSK1
  remaining activity at 100 µM: 93%

## CC(=O)Nc1nc2ccccc2s1 [Compound 03-32]
p38a MAPK
  residual kinase activity, p38a MAPK: 91
SYK
  residual kinase activity, SYK: 116
p38b MAPK
  residual kinase activity, p38b MAPK: 107
PDK1
  residual kinase activity, PDK1: 96
CAMKKb
  residual kinase activity, CAMKKb: 101
PAK4
  residual kinase activity, PAK4: 75
PLK1
  residual kinase activity, PLK1: 62
EF2K
  residual kinase activity, EF2K: 89
DYRK1A
  residual kinase activity, DYRK1A: 43
PKCa
  residual kinase activity, PKCa: 104
MKK1
  residual kinase activity, MKK1: 81
CHK2
  residual kinase activity, CHK2: 87
JAK2
  residual kinase activity, JAK2: 66
MARK3
  residual kinase activity, MARK3: 85
Lck
  residual kinase activity, Lck: 91
PIM1
  residual kinase activity, PIM1: 79
RIPK2
  residual kinase activity, RIPK2: 70
TBK1
  residual kinase activity, TBK1: 88
EPH-A2
  residual kinase activity, EPH-A2: 111
BTK
  residual kinase activity, BTK: 100
RSK2
  residual kinase activity, RSK2: 105
PKA
  residual kinase activity, PKA: 91
PKBa
  residual kinase activity, PKBa: 104
MSK1
  residual kinase activity, MSK1: 98

## O=C(Nc1nc2cc(O)ccc2s1)c1cccnc1 [Compound 03-33]
p38a MAPK
  residual kinase activity, p38a MAPK: 105
SYK
  residual kinase activity, SYK: 86
p38b MAPK
  residual kinase activity, p38b MAPK: 87
PDK1
  residual kinase activity, PDK1: 100
CAMKKb
  residual kinase activity, CAMKKb: 69
PAK4
  residual kinase activity, PAK4: 92
PLK1
  residual kinase activity, PLK1: 80
EF2K
  residual kinase activity, EF2K: 106
DYRK1A
  residual kinase activity, DYRK1A: 29
PKCa
  residual kinase activity, PKCa: 105
MKK1
  residual kinase activity, MKK1: 89
CHK2
  residual kinase activity, CHK2: 46
JAK2
  residual kinase activity, JAK2: 70
MARK3
  residual kinase activity, MARK3: 85
Lck
  residual kinase activity, Lck: 105
PIM1
  residual kinase activity, PIM1: 25
RIPK2
  residual kinase activity, RIPK2: 20
TBK1
  residual kinase activity, TBK1: 97
EPH-A2
  residual kinase activity, EPH-A2: 108
BTK
  residual kinase activity, BTK: 110
RSK2
  residual kinase activity, RSK2: 85
PKA
  residual kinase activity, PKA: 102
PKBa
  residual kinase activity, PKBa: 100
MSK1
  residual kinase activity, MSK1: 92
